According to ChEMBL document CHEMBL4118122, “Identification and biological evaluation of thiazole-based inverse agonists of RORγt” (Bioorg Med Chem Lett, 2018):

Experiments:
Nociceptin receptor [1] = molecular target: T1, Nociceptin receptor (Homo sapiens, UniProt P41146); experiment: Displacement of [3H]nociceptin from human recombinant NOP receptor at 1 uM after 60 mins by scintillation counting analysis relative to control
[2] = molecular target: Sodium-dependent dopamine transporter (Homo sapiens) (UniProt Q01959); experiment: Displacement of [3H][…] from recombinant human dopamine transporter at 1 uM after 120 mins by scintillation counting analysis relative to control
[3] = molecular target: Ephrin type-A receptor 2 (Homo sapiens) (UniProt P29317); experiment: Inhibition of recombinant GST-tagged human EPHA2 (560 to 976 residues) cytoplasmic domain expressed in baculovirus expression system at 10 uM in presence of ATP relative to control
Chain of Ephrin type-A receptor 2 (Homo sapiens) (P29317 whole entry, the tested form may be a part): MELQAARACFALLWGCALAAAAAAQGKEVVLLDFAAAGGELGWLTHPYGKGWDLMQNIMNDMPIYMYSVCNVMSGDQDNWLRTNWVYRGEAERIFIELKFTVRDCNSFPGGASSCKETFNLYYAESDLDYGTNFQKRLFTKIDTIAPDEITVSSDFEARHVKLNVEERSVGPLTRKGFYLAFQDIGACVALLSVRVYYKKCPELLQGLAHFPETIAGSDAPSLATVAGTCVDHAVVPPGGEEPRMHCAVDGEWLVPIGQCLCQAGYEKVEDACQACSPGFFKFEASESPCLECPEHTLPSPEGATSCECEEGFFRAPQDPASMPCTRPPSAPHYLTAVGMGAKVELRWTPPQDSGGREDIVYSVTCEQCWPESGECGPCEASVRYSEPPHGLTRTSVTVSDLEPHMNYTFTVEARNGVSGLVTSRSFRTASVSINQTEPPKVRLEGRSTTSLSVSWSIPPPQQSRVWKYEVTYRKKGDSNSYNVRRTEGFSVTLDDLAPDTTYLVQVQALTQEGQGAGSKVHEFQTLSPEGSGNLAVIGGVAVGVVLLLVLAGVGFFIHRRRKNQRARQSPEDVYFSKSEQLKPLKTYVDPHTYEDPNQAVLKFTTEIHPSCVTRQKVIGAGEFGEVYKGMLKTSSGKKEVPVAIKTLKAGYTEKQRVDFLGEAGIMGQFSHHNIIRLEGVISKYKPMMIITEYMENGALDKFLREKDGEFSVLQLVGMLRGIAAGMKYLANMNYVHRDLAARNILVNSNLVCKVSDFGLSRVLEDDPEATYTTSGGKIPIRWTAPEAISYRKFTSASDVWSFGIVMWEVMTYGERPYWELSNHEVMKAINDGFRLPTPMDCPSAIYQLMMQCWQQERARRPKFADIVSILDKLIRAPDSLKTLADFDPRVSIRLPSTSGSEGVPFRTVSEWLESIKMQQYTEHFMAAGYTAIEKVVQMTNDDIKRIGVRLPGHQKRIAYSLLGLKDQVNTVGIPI

[4] = molecular target: Muscarinic acetylcholine receptor M3 (Homo sapiens, UniProt P20309); experiment: Displacement of [3H]4-DAMP from human recombinant M3 receptor after 60 mins by scintillation counting analysis
[5] = Terminal half life in Sprague-Dawley rat at 5 mg/kg, po; assay type: ADME, organism-based; conditions: in vivo, read-out: beta t1/2 (converted)
[6] = Tmax in Sprague-Dawley rat at 5 mg/kg, po; assay type: ADME, organism-based; conditions: in vivo
[7] = molecular target: T2, 5-hydroxytryptamine receptor 6 (Homo sapiens, UniProt P50406); experiment: Displacement of [3H]LSD from human recombinant 5-HT6 receptor after 120 mins by scintillation counting analysis
T2 sequence (P50406 whole entry): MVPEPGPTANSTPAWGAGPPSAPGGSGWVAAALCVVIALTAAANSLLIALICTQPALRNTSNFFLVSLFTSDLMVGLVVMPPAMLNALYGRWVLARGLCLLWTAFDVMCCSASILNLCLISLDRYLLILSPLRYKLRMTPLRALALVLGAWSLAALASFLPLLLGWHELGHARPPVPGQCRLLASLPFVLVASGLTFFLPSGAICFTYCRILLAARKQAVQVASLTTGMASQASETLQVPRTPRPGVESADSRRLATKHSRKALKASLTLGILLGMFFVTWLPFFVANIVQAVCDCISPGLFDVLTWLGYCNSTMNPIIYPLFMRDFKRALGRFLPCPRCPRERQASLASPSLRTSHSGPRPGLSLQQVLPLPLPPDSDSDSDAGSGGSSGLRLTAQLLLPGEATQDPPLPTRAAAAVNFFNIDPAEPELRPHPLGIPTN

[8] = molecular target: Aurora kinase B (Homo sapiens) (UniProt Q96GD4); experiment: Inhibition of recombinant full length His-tagged human Aurora B expressed in baculovirus expression system at 10 uM in presence of ATP relative to control
Chain of Aurora kinase B (Homo sapiens) (Q96GD4 whole entry): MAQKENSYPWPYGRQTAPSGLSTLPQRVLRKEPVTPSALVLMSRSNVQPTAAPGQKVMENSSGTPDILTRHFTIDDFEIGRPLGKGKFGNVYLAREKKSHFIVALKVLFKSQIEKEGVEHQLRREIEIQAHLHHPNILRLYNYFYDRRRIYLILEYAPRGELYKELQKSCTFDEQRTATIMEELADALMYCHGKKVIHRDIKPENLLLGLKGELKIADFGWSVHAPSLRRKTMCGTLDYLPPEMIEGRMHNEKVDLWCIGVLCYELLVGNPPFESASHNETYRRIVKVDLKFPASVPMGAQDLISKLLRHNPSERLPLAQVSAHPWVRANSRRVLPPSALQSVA

[9] = molecular target: Muscarinic acetylcholine receptor M2 (Homo sapiens) (UniProt P08172); experiment: Displacement of [3H]AF-DX 384 from human recombinant M2 receptor at 10 uM after 60 mins by scintillation counting analysis relative to control
Chain of Muscarinic acetylcholine receptor M2 (Homo sapiens) (P08172 whole entry): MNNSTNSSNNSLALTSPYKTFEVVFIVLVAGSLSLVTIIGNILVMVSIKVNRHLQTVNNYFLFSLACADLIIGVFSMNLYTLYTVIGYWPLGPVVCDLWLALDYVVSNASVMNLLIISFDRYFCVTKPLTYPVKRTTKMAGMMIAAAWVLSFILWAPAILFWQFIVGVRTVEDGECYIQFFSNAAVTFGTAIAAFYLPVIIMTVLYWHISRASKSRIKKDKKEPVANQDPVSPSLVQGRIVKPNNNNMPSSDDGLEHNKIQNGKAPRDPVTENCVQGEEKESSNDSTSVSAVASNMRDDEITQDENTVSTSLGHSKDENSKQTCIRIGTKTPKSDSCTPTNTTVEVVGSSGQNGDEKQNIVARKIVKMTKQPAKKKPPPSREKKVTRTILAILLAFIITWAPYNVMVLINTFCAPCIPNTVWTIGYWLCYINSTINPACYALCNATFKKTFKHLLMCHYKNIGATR

[10] = molecular target: Serine/threonine-protein kinase pim-2 (Homo sapiens) (UniProt Q9P1W9); experiment: Inhibition of recombinant full length GST-tagged human PIM2 expressed in baculovirus expression system at 10 uM in presence of ATP relative to control
[11] = Half life in rat microsomes; assay type: ADME, Microsome
[12] = molecular target: Beta-1 adrenergic receptor (Homo sapiens, UniProt P08588); experiment: Displacement of [3H](-)CGP 12177 from human beta1 adrenoceptor at 1 uM after 60 mins by scintillation counting analysis relative to control
[13] = molecular target: Calcium/calmodulin-dependent protein kinase type II subunit alpha (Homo sapiens) (UniProt Q9UQM7); experiment: Inhibition of CamK2alpha (unknown origin) at 10 uM in presence of ATP relative to control
Chain of Calcium/calmodulin-dependent protein kinase type II subunit alpha (Homo sapiens) (Q9UQM7 whole entry): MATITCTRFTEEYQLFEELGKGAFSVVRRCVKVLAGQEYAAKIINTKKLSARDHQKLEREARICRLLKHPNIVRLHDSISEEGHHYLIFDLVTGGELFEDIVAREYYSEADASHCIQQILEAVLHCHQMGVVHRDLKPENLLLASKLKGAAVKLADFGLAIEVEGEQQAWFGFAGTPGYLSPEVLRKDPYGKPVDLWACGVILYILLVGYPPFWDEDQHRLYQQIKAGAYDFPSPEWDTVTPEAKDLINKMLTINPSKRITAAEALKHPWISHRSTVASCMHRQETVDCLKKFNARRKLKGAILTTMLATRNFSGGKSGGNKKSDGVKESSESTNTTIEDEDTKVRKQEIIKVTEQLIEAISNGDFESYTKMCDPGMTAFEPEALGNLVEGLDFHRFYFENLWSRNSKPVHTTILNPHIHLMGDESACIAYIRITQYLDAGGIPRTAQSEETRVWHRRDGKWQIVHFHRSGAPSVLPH

[14] = molecular target: 5-hydroxytryptamine receptor 3A (Homo sapiens) (UniProt P46098); experiment: Displacement of [3H]BRL 43694 from human recombinant 5-HT3 receptor at 10 uM after 120 mins by scintillation counting analysis relative to control
Chain of 5-hydroxytryptamine receptor 3A (Homo sapiens) (P46098 whole entry): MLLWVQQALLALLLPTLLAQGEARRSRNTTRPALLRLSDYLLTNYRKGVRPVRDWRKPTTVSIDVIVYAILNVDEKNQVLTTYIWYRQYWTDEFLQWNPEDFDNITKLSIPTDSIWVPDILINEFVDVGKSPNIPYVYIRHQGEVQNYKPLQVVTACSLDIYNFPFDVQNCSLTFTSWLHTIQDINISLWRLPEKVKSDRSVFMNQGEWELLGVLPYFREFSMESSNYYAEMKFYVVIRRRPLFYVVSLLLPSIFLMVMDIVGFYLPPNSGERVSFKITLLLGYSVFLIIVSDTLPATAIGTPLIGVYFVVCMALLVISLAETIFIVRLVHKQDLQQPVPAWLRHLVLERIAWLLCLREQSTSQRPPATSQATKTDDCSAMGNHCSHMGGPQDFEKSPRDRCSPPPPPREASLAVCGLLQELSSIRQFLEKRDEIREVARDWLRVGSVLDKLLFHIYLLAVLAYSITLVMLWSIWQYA

Rattus norvegicus [15] = organism: Rattus norvegicus; experiment: Displacement of [3H]D 888 from rat brain L-type calcium channel verapamil binding site at 10 uM after 120 mins by scintillation counting analysis relative to control
Endothelin-1 receptor = Endothelin-1 receptor (Homo sapiens, UniProt P25101); experiment: Displacement of [125I]-endothelin-1 from human recombinant ETA receptor after 120 mins by scintillation counting analysis
[16] = molecular target: 5-hydroxytryptamine receptor 1A (Homo sapiens, UniProt P08908); experiment: Displacement of [3H]8-OH-DPAT from recombinant human 5-HT1A receptor after 60 mins by scintillation counting analysis
[17] = molecular target: Sodium-dependent noradrenaline transporter (Homo sapiens, UniProt P23975); experiment: Displacement of [3H]nisoxetine from recombinant human norepinephrine transporter after 120 mins by scintillation counting analysis
[18] = molecular target: Adenosine receptor A3 (Homo sapiens) (UniProt P0DMS8); experiment: Displacement of [125I]AB-MECA from human recombinant adenosine A3 receptor at 10 uM after 120 mins by scintillation counting analysis relative to control
Mu-type opioid receptor = Mu-type opioid receptor (Homo sapiens, UniProt P35372); experiment: Displacement of [3H]DAMGO from human recombinant mu receptor at 10 uM after 120 mins by scintillation counting analysis relative to control
[19] = molecular target: Glycogen synthase kinase-3 beta (Homo sapiens) (UniProt P49841); experiment: Inhibition of recombinant full length human His-tagged GSK3beta expressed in baculovirus expression system at 10 uM in presence of ATP relative to control
Nociceptin receptor [20] = molecular target: T1, Nociceptin receptor; experiment: Displacement of [3H]nociceptin from human recombinant NOP receptor after 60 mins by scintillation counting analysis
[21] = molecular target: Delta-type opioid receptor (Homo sapiens, UniProt P41143); experiment: Displacement of [3H]DADLE from human recombinant delta opioid receptor after 60 mins by scintillation counting analysis
[22] = molecular target: Fibroblast growth factor receptor 1 (Homo sapiens) (UniProt P11362); experiment: Inhibition of recombinant His-tagged human FGFR1 cytoplasmic domain expressed in baculovirus expression system at 10 uM in presence of ATP relative to control
[23] = molecular target: B2 bradykinin receptor (Homo sapiens) (UniProt P30411); experiment: Displacement of [3H]bradykinin from human recombinant B2 receptor at 10 uM after 60 mins by scintillation counting analysis relative to control
Chain of B2 bradykinin receptor (Homo sapiens) (P30411 whole entry): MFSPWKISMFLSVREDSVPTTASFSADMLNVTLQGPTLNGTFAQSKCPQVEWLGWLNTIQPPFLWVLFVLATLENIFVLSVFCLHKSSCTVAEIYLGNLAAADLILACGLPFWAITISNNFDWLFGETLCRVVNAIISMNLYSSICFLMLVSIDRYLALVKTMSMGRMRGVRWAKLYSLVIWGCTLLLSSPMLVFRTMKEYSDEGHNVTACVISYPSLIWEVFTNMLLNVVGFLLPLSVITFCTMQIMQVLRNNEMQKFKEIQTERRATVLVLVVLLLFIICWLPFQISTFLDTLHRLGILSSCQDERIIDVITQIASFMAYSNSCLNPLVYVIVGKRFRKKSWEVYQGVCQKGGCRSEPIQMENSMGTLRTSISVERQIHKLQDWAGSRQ

Rattus norvegicus [24] = organism: Rattus norvegicus; experiment: Displacement of [3H]flunitrazepam from rat brain central BZD at 1 uM after 60 mins relative to control
[25] = molecular target: Adrenergic receptor alpha-2 (Rattus norvegicus) (UniProt P22086+P19328+P22909); experiment: Displacement of [3H]-RX 821002 from rat alpha2 adrenoceptor at 10 uM after 60 mins by scintillation counting analysis relative to control; assay type: protein assay
[26] = molecular target: Neuropeptide Y receptor type 1 (Homo sapiens, UniProt P25929); experiment: Displacement of [125I]peptide YY from human Y1 receptor after 120 mins by scintillation counting analysis
[27] = molecular target: Muscarinic acetylcholine receptor M2 (Homo sapiens) (UniProt P08172); experiment: Displacement of [3H]AF-DX 384 from human recombinant M2 receptor at 1 uM after 60 mins by scintillation counting analysis relative to control
Adenosine receptor A2a = Adenosine receptor A2a (Homo sapiens, UniProt P29274); experiment: Displacement of [3H]-CGS 21680 from human recombinant adenosine A2A receptor after 120 mins by scintillation counting analysis
[28] = molecular target: 5-hydroxytryptamine receptor 7 (Homo sapiens, UniProt P34969); experiment: Displacement of [3H]LSD from human recombinant 5-HT7 receptor at 10 uM after 120 mins by scintillation counting analysis relative to control
[29] = molecular target: T2, 5-hydroxytryptamine receptor 6; experiment: Displacement of [3H]LSD from human recombinant 5-HT6 receptor at 1 uM after 120 mins by scintillation counting analysis relative to control
Histamine H2 receptor = Histamine H2 receptor (Homo sapiens, UniProt P25021); experiment: Displacement of [125I]APT from human recombinant histamine H2 receptor at 1 uM after 120 mins by scintillation counting analysis relative to control
Chain of Histamine H2 receptor (P25021 whole entry): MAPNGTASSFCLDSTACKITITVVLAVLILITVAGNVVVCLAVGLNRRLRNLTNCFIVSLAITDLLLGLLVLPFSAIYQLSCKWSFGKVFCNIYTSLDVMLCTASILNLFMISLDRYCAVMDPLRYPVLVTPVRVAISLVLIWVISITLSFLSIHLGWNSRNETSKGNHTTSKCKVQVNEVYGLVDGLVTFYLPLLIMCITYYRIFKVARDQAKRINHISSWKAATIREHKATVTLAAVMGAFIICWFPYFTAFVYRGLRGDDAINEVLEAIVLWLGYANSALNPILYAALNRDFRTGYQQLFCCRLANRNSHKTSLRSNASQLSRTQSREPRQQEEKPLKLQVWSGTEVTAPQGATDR

Adenosine receptor A3 = Adenosine receptor A3 (Homo sapiens, UniProt P0DMS8); experiment: Displacement of [125I]AB-MECA from human recombinant adenosine A3 receptor after 120 mins by scintillation counting analysis
[30] = molecular target: Tyrosine-protein kinase Blk (Homo sapiens) (UniProt P51451); experiment: Inhibition of recombinant full length His-tagged human Blk cytoplasmic domain expressed in Baculovirus expression system at 10 uM in presence of ATP relative to control
Chain of Tyrosine-protein kinase Blk (Homo sapiens) (P51451 2-505 limits assumed): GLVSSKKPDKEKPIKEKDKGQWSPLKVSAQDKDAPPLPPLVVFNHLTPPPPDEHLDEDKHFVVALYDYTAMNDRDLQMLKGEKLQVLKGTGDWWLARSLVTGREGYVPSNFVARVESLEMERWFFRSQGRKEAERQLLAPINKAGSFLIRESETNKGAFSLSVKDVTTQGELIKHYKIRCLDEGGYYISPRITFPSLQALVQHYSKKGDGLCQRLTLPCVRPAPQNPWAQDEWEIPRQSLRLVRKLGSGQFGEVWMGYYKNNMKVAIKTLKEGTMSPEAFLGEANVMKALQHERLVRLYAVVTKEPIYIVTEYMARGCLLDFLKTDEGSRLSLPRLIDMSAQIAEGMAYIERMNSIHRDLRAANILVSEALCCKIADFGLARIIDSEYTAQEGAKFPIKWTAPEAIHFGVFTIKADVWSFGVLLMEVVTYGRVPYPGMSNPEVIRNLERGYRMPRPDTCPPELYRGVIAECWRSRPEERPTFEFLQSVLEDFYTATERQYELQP

T1 sequence (P41146 whole entry): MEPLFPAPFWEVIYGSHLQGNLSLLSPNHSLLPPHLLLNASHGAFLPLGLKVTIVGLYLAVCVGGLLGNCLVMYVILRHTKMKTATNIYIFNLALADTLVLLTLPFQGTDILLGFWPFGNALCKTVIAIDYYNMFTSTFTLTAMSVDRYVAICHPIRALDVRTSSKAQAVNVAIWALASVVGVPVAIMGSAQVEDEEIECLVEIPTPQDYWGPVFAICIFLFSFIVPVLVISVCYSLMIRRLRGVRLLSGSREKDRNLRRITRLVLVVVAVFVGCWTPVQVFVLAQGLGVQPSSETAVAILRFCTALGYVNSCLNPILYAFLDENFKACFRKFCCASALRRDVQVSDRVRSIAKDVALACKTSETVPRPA

## CC(C)(C)NS(=O)(=O)c1ccc(-c2sc(C(=O)N[C@H]3C[C@H](C(=O)O)C3)nc2CC2CCCCC2)c2ccccc12
Nociceptin receptor [1]
  inhibition: < 10%
[2]
  inhibition: 18%
[3]
  inhibition: -7%
[4]
  IC50: 0.73 nM
[5]
  half-life: 126 min
[6]
  Tmax: 48 min
[7]
  IC50: 254 nM
[8]
  inhibition: 8%
[9]
  inhibition: 12%
[10]
  inhibition: 4%
[11]
  half-life: 47 min
[12]
  inhibition: < 10%
[13]
  inhibition: 2%
[14]
  inhibition: 12%
Rattus norvegicus [15]
  inhibition: < 10%
Endothelin-1 receptor
  IC50: 0.023 nM
[16]
  IC50: 0.43 nM
[17]
  IC50: 3.4 nM
[18]
  inhibition: 81%
Mu-type opioid receptor
  inhibition: 12%
[19]
  inhibition: -3%
Nociceptin receptor [20]
  IC50: 0.98 nM
[21]
  IC50: 6 nM
[22]
  inhibition: 2%
[23]
  inhibition: < 10%
Rattus norvegicus [24]
  inhibition: < 10%
[25]
  inhibition: < 10%
[26]
  IC50: 0.13 nM
[27]
  inhibition: < 10%
Adenosine receptor A2a
  IC50: 9.2 nM
[28]
  inhibition: 10%
[29]
  inhibition: < 10%
Histamine H2 receptor
  inhibition: < 10%
Adenosine receptor A3
  IC50: 0.17 nM
[30]
  inhibition: -5%
